Laboratory results published in the supplement of paper PMC7108870.

Tests used:
HEK293sieSTAT3(wt) [1] = test: drug sensitivity score (DSS), viability CellTiter-Glo (DSS (dimensionless)); higher = more growth inhibition; extreme values may be limits of the assay; settings: 72 h; STAT3 variant: wild type
Procedure, shortened: (§1)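 HEK293 cells bearing a STAT3-dependent luciferase reporter and overexpressing wild-type or mutant STAT3 were incubated with compounds at 5 concentrations in 10-fold steps for 72 hours at 37°C and 5% CO2. CellTox Green fluorescence and then CellTiter-Glo luminescence were measured, and values were normalised to negative and positive control wells. In Breeze, a drug sensitivity score was computed from the dose-response curve area.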

HEK293sieSTAT3(Y640F) [2] = test: as above; settings: 72 h; STAT3 variant: Y640F (constitutively active)
Procedure, shortened: as §1

HEK293sieSTAT3(wt) [3] = test: drug sensitivity score (DSS), cytotoxicity CellTox Green (DSS (dimensionless)); higher = more cytotoxic; extreme values may be limits of the assay; settings: 72 h; STAT3 variant: wild type
Procedure, shortened: as §1

HEK293sieSTAT3(Y640F) [4] = test: as above; settings: 72 h; STAT3 variant: Y640F (constitutively active)
Procedure, shortened: as §1

| SMILES | drug sensitivity score (HEK293sieSTAT3(wt) [1]) | drug sensitivity score (HEK293sieSTAT3(Y640F) [2]) | drug sensitivity score (HEK293sieSTAT3(wt) [3]) | drug sensitivity score (HEK293sieSTAT3(Y640F) [4]) |
| --- | --- | --- | --- | --- |
| COC(=O)C[C@](O)(CCCC(C)(C)O)C(=O)O[C@@H]1C(OC)=C[C@]23CCCN2CCc2cc4c(cc2[C@H]13)OCO4 [Omacetaxine] (top concentration tested 10000 nM) | 32.9 | 28.9 | 3.27 | 1.64 |
| COc1ncc(-c2ccc3nccc(-c4ccnnc4)c3c2)cc1NS(=O)(=O)c1ccc(F)cc1F [Omipalisib] (top concentration tested 1000 nM) | 22.1 | 18.3 | 6.37 | 0 |
| CC(C)c1cc(C(=O)N2Cc3ccc(CN4CCN(C)CC4)cc3C2)c(O)cc1O [Onalespib] (top concentration tested 2500 nM) | 24.5 | 20.9 | 18.9 | 7.91 |
| COC[C@H](NC(=O)c1cnc(C)s1)C(=O)N[C@@H](COC)C(=O)N[C@@H](Cc1ccccc1)C(=O)[C@@]1(C)CO1 [Oprozomib] (top concentration tested 2500 nM) | 28.8 | 23.6 | 28.3 | 21.5 |
| Cc1[nH]c(/C=C2\C(=O)Nc3ccccc32)c(C)c1CCC(=O)O [Orantinib] (top concentration tested 10000 nM) | 1.33 | 1.85 | 21.6 | 18.4 |
| CNC(=O)c1ccc2cc([C@@]3(O)CCn4cncc43)ccc2c1 [Orteronel] (top concentration tested 10000 nM) | 0 | 0 | 0 | 0 |
| C=CC(=O)Nc1cc(Nc2nccc(-c3cn(C)c4ccccc34)n2)c(OC)cc1N(C)CCN(C)C [Osimertinib] (top concentration tested 2500 nM) | 8.88 | 6.46 | 6.55 | 0.47 |
| O=C(O)C(=O)O.[NH-][C@@H]1CCCC[C@H]1[NH-].[Pt+2] [Oxaliplatin] (top concentration tested 100000 nM) | 19.3 | 16.9 | 12 | 5.26 |
| C=CCc1cccc(/C=N/NC(=O)CN2CCN(Cc3ccccc3)CC2)c1O [PAC-1] (top concentration tested 10000 nM) | 7.56 | 4.7 | 3.52 | 0 |
| O=C(Nc1cccnc1)N1CCC(Cc2cccc(Oc3ccc(C(F)(F)F)cn3)c2)CC1 [PF-3845] (top concentration tested 10000 nM) | 3.05 | 1.51 | 0 | 0 |
| COc1ccccc1S(=O)(=O)Nc1ccc2c(c1)CN(C)C(=O)N2 [PFI-1] (top concentration tested 10000 nM) | 5.96 | 5.5 | 6.8 | 0.33 |
| CN1CCN(c2cc(C(=O)Nc3ccc4c(c3)-c3c(c(C(N)=O)nn3-c3ccc(F)cc3)CC4)c(Cl)cn2)CC1 [PHA 408] (top concentration tested 10000 nM) | 8.88 | 9.12 | 8.63 | 5.61 |
| CCn1nnc2c(N3CCOCC3)nc(-c3ccc(NC(=O)Nc4ccc(C(=O)N5CCN(C)CC5)cc4)cc3)nc21 [PKI-402] (top concentration tested 2500 nM) | 16.8 | 16.7 | 5.48 | 0 |
| O=C(Nc1cc(Cl)cc2c1[nH]c1cnccc12)c1cccnc1 [PS-1145] (top concentration tested 25000 nM) | 3.94 | 0 | 0.08 | 1.94 |
| COc1cc(Br)c(Nc2nc(-c3c(C)nc4ncccn34)cs2)c(Br)c1 [PTC-209] (top concentration tested 10000 nM) | 15.7 | 16 | 2.2 | 0.1 |
| CC(=O)O[C@H]1C(=O)[C@@]2(C)[C@H]([C@H](OC(=O)c3ccccc3)[C@]3(O)C[C@H](OC(=O)[C@H](O)[C@@H](NC(=O)c4ccccc4)c4ccccc4)C(C)=C1C3(C)C)[C@]1(OC(C)=O)CO[C@@H]1C[C@@H]2O [Paclitaxel] (top concentration tested 1000 nM) | 23.2 | 16.4 | 16.8 | 0.91 |
| C1=N/C2=N/c3ccc(OCCN4CCCC4)c(c3)COC/C=C/COCc3cccc(c3)C(=C1)N2 [Pacritinib] (top concentration tested 10000 nM) | 11.1 | 12.1 | 10.8 | 6.22 |
| CC(=O)c1c(C)c2cnc(Nc3ccc(N4CCNCC4)cn3)nc2n(C2CCCC2)c1=O [Palbociclib] (top concentration tested 10000 nM) | 6.99 | 5.65 | 7.3 | 1.93 |
| COc1ccc(COc2cc3oc(=O)c4cc(C(C)O)ccc4c3cc2OC)cc1 (stereo not drawn) [Palomid-529] (top concentration tested 10000 nM) | 2.21 | 2.18 | 3.06 | 0 |
| Cc1[nH]c2ccccc2c1CCNCc1ccc(/C=C/C(=O)NO)cc1 [Panobinostat] (top concentration tested 1000 nM) | 20.4 | 20.6 | 17.8 | 11.6 |
| C/C(=C\c1csc(C)n1)[C@@H]1C[C@@H]2O[C@]2(C)CCC[C@H](C)[C@H](O)[C@@H](C)C(=O)C(C)(C)[C@@H](O)CC(=O)O1 [Patupilone] (top concentration tested 1000 nM) | 21.9 | 19.1 | 15.5 | 4.17 |

| SMILES | drug sensitivity score (HEK293sieSTAT3(wt) [1]) | drug sensitivity score (HEK293sieSTAT3(Y640F) [2]) | drug sensitivity score (HEK293sieSTAT3(wt) [3]) | drug sensitivity score (HEK293sieSTAT3(Y640F) [4]) |
| --- | --- | --- | --- | --- |
| Cc1ccc(Nc2nccc(N(C)c3ccc4c(C)n(C)nc4c3)n2)cc1S(N)(=O)=O [Pazopanib] (top concentration tested 10000 nM) | 0.89 | 0.04 | 0 | 0 |
| CCOc1cc2ncc(C#N)c(Nc3ccc(F)c(Cl)c3)c2cc1NC(=O)/C=C/CN(C)C [Pelitinib] (top concentration tested 2500 nM) | 9.21 | 6.05 | 3.88 | 1.79 |
| Nc1nc2[nH]cc(CCc3ccc(C(=O)N[C@@H](CCC(=O)O)C(=O)O)cc3)c2c(=O)[nH]1 [Pemetrexed] (top concentration tested 10000 nM) | 13.3 | 12.9 | 2.93 | 0 |
| OC[C@H]1O[C@@H](n2cnc3c2N=CNC[C@H]3O)C[C@@H]1O [Pentostatin] (top concentration tested 10000 nM) | 1.4 | 0.02 | 0 | 0 |
| CCCCCCCCCCCCCCCCCCOP(=O)([O-])OC1CC[N+](C)(C)CC1 [Perifosine] (top concentration tested 2500 nM) | 2.19 | 5.21 | 0.08 | 0 |
| NS(=O)(=O)OC[C@@H]1C[C@@H](n2ccc3c(N[C@H]4CCc5ccccc54)ncnc32)C[C@@H]1O [Pevonedistat] (top concentration tested 10000 nM) | 23.6 | 22.3 | 7.13 | 3.23 |
| FC(F)(F)c1ccc(CNc2ccc(Cc3c[nH]c4ncc(Cl)cc34)cn2)cn1 [Pexidartinib] (top concentration tested 10000 nM) | 2.35 | 3.45 | 0 | 0 |
| CS(=O)(=O)N1CCN(Cc2cc3nc(-c4cccc5[nH]ncc45)nc(N4CCOCC4)c3s2)CC1 [Pictilisib] (top concentration tested 10000 nM) | 15.7 | 12.7 | 7.57 | 1.36 |
| COc1ccc(Cl)c(Nc2nc3ccccc3nc2NS(=O)(=O)c2cccc(NC(=O)C(C)(C)N)c2)c1 [Pilaralisib] (top concentration tested 2500 nM) | 3.92 | 6.22 | 0 | 0 |
| CC[C@@H]1C(=O)OC[C@@H]1Cc1cncn1C [Pilocarpine] (top concentration tested 40000 nM) | 1.32 | 0.59 | 0 | 0 |
| O=C(NC[C@H](O)CO)c1ccncc1Nc1ccc(I)cc1F [Pimasertib] (top concentration tested 10000 nM) | 0 | 0.57 | 0 | 0 |
| CC(C)N(C[C@H]1O[C@@H](n2cnc3c(N)ncnc32)[C@H](O)[C@@H]1O)[C@H]1C[C@@H](CCc2nc3cc(C(C)(C)C)ccc3[nH]2)C1 [Pinometostat] (top concentration tested 1000 nM) | 0 | 0.69 | 0 | 0.46 |
| O=C(CCBr)N1CCN(C(=O)CCBr)CC1 [Pipobroman] (top concentration tested 10000 nM) | 1.43 | 6.86 | 0 | 0 |
| NCCNc1ccc(NCCN)c2c1C(=O)c1ccncc1C2=O [Pixantrone] (top concentration tested 10000 nM) | 0 | 1.82 | 0 | 0 |
| c1cc(CN2CCCNCCNCCCNCC2)ccc1CN1CCCNCCNCCCNCC1 [Plerixafor] (top concentration tested 10000 nM) | 0 | 0 | 0.25 | 0 |
| CO[C@H](C(=O)[C@@H](O)[C@@H](C)O)[C@@H]1Cc2cc3cc(O[C@H]4C[C@@H](O[C@@H]5C[C@@H](O)[C@H](O)[C@@H](C)O5)[C@H](O)[C@@H](C)O4)c(C)c(O)c3c(O)c2C(=O)[C@H]1O[C@H]1C[C@@H](O[C@@H]2C[C@@H](O)[C@@H](O[C@@H]3C[C@](C)(O)[C@H](O)[C@@H](C)O3)[C@@H](C)O2)[C@H](O)[C@@H](C)O1 [Plicamycin] (top concentration tested 10000 nM) | 18.7 | 17.8 | 7.29 | 6.46 |
| Nc1cccc2c1C(=O)N(C1CCC(=O)NC1=O)C2=O (stereo not drawn) [Pomalidomide] (top concentration tested 10000 nM) | 0 | 0 | 0 | 0 |
| C=CC(=O)N1CCC(Oc2cc3c(Nc4ccc(Cl)c(Cl)c4F)ncnc3cc2OC)CC1 [Poziotinib] (top concentration tested 1000 nM) | 0 | 1.53 | 0 | 0 |
| CCCCc1nc2cc(/C=C/C(=O)NO)ccc2n1CCN(CC)CC [Pracinostat] (top concentration tested 10000 nM) | 22 | 20.7 | 14.5 | 9.85 |
| CC[C@H](C)C(=O)O[C@H]1C[C@H](O)C=C2C=C[C@H](C)[C@H](CC[C@@H](O)C[C@@H](O)CC(=O)O)[C@H]21 [Pravastatin] (top concentration tested 10000 nM) | 2.37 | 0 | 0 | 0.36 |
| C[C@]12C=CC(=O)C=C1CC[C@@H]1[C@@H]2[C@@H](O)C[C@@]2(C)[C@H]1CC[C@]2(O)C(=O)CO [Prednisolone] (top concentration tested 10000 nM) | 0 | 0 | 0 | 0 |
